Measurements published in patent US20070111261A1, “Antigens” (priority 2001, published 2007).
“Also recorded” adds a separate entry of the source.

Columns and labels:
[1] = test system: mouse anti-HPV16 E7 mAb ED17; test: Dot immunoassay with anti-HPV16 E7 mAb ED17; format: binding; conditions: for Linear determinant recognized by mAb ED17 (epitope mapping): dot immunoassays using 6-mer peptides offset by one residue; for Binding to mAb ED17 in dot immunoassay: 15-mer peptide spotted on membrane, primary antibody 1:500
Experimental: The peptides corresponding to the three peptide sequences were synthetized and used as antigens in dot immunoassay experiments with MAb-ED17, a mouse monoclonal IgG, raised to the full length E7 oncoprotein. Peptide purity was controlled by analytical HPLC, and the molecular mass of purified peptides confirmed by fast atomic bombardment mass spectrometry. Peptides were dissolved in 0.9% NaCl, aliquoted and stored at −20° C.
Nitrocellulose membranes (Nytran […] pore size, Schleicher & Schüll) were pretreated for 1 min in 4% BSA (bovine serum albumin)/10 mM Tris-HCl, pH 7.5/150 mM NaCl, followed by 10 min activation with 2.5% glutaraldehyde. Peptides (5 Φg) were spotted on the activated membrane, left to dry for 1 hr at room temperature, and probed in phosphate-buffered saline (PBS) containing 4% BSA, 0.1% (v/v) Tween 20, and the primary antibody (1:500). Primary antibody was mouse anti-HPV16 E7 monoclonal IgG1 raised to amino acids 1-98 representing full length E7 (ED17, cat # sc-6981, Santa Cruz Biotechnology, Inc., Santa Cruz, Calif.). Following a 1 h incubation at room temperature, the membrane was washed three times for 10 mins with PBS containing 4% BSA, 0.1% Tween-20 and incubated with horseradish peroxidase-conjugated affinity-purified sheep anti-mouse IgG for 1 h (1:2500; Santa Cruz Biotechnology). Membrane was washed in PBS (4 times for 5 mins), and immunoblots were developed using the enhanced chemiluminescence detection assay (ECL Western blotting analysis system, Amersham Pharmacia Biotech, Milan, Italy).
The identification of the H2-E^k presented HPV 16 E7 epitope was further ananyzed by epitope mapping. Dot immunoassays by using 6-mer peptides offset by one amino acid residue confirmed that the anti-E7 mAb recognized the linear determinant HPV 16 E52-61 YNIVTFCCKC (SEQ ID NO:108) present in the 15-mer peptide RAHYNIVTFCCKCDS (SEQ ID NO:61), having the highest binding potential to the mouse MHC II molecule, and a low degree of similarity to host proteins.
Four peptides were analyzed for epitopic determinants in dot immunoassay tests: E725-39 YEQLNDSSEEEDEID (control; SEQ ID NO:76); E784-98 MGTLGIVCPICSQKP (SEQ ID NO:71); E72-16 HGDTPTLHEYMLDLQ (SEQ ID No:69); E749-63 RAHYNIVTFCCKCDS (SEQ ID NO:61); and E732-46 SEEEDEIDGPAGQAE (SEQ ID NO:39). […] As expected, high similarity peptide E732-46 SEEEDEIDGPAGQAE (SEQ ID NO:39) was not reactive (FIG. 1, peptide 5).
E749-63 RAHYNIVTFCCKCDS (SEQ ID NO:61) was further analyzed by epitope mapping.

[2] = test system: MAb-ED17; test: NMR spectra confirming epitope screening; format: binding, mouse
Description: To confirm the epitope screening results, NMR spectra were obtained that confirmed the high affinity of MAb-ED17 towards the predicted epitopic peptide RAHYNIVTFCCKCDS (SEQ ID NO:61).

[3] = test system: HPV-transformed tumor cells; conditions: mice; cited from earlier work

Substance | Binding to mAb ED17 in dot immunoassay [1] | other results
YNIVTFCCKC (listed as Human papillomavirus) | – | Linear determinant recognized by mAb ED17 (epitope mapping) [1]: recognized
AHYNIVTFCCKC | – | Linear determinant recognized by mAb ED17 (epitope mapping) [1]: recognized
RAHYNIVTFCCKCDS (listed as Human papillomavirus) | Significant binding; also recorded: significant signal | Affinity of MAb-ED17 towards peptide by NMR spectra [2]: high affinity
YEQLNDSSEEEDEID (listed as Human papillomavirus) | no binding | –
HGDTPTLHEYMLDLQ (listed as Human papillomavirus) | not recognized; also recorded: No immune reaction | –
HPV E744-62 peptide: polypeptide comprising amino acids 44-62 of HPV E7 protein (QAEPDRAHYNIVTFCCKCD; UniProt P03129 44-62, looked up, fragment) | – | Prevention of outgrowth of HPV-transformed tumor cells [3]: effective for preventing outgrowth
MGTLGIVCPICSQKP (listed as Human papillomavirus) | not recognized | –
SEEEDEIDGPAGQAE (listed as Human papillomavirus) | not reactive | –
